The source of these data is patent US9040545B2, “Heterocyclyl pyrazolopyrimidine analogues as selective JAK inhibitors” (Cellzome Limited, priority 2010, dated 2015).

One assay addresses T1, Aurora A (Homo sapiens, UniProt O14965).
T1 construct: cell lysates from Jurkat cells (ATCC TIB-152) used; endogenous in cells; host or cells: Jurkat cells (ATCC TIB-152), treated with pervanadate
T1 sequence (O14965 1-403): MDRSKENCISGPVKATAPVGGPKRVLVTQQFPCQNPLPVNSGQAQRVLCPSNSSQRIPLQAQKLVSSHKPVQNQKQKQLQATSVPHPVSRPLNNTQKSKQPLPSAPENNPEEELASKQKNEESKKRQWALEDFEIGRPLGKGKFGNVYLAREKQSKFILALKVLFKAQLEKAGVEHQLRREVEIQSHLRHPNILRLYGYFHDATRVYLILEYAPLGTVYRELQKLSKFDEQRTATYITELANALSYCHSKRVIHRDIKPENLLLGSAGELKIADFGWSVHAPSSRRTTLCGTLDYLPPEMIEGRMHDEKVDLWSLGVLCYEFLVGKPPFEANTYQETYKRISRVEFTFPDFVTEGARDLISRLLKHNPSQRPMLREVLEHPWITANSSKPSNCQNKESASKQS
Briefly: Kinobeads assay, Aurora A. The format is binding. The note with it: for IC50: lysate of pervanadate-treated Jurkat cells, read-out: Inhibition values (IC50) Aur A.

The target in a further assay is T2, Aurora B (Homo sapiens, UniProt Q96GD4).
T2 construct: cell lysates from Jurkat cells (ATCC TIB-152) used; endogenous in cells; host or cells: Jurkat cells (ATCC TIB-152), treated with pervanadate
Briefly: Kinobeads assay, Aurora B. The format is binding. The conditions noted are these: for IC50: lysate of pervanadate-treated Jurkat cells, read-out: Inhibition values (IC50) Aur B.

Where only a bound is given, the exact number is not on record here.

T2 sequence (Q96GD4 whole entry): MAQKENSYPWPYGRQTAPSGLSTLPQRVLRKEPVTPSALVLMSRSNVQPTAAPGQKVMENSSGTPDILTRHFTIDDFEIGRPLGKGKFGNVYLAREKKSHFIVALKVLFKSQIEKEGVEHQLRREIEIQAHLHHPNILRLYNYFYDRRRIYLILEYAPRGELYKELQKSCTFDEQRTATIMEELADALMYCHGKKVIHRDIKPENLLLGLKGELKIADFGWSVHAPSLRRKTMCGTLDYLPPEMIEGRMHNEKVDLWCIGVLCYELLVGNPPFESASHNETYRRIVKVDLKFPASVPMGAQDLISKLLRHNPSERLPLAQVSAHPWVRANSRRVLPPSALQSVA

A word on the IC50: it is the concentration needed to halve the response being measured. In the case of `O=C(c1cccc(Cn2ncc3cnc(Nc4cnn(CCO)c4)nc32)c1F)N1CCOCC1` [Example 85, (2-Fluoro-3-((6-((1-(2-hydroxyethyl)-1H-pyrazol-4-yl)amino)-1H-pyrazolo[3,4-d]pyrimidin-1-yl)methyl)phenyl)(morpholino)methanone], at Aurora A, the “JAK3/AurA Fold Selectivity” value is over 50 Fold and the half-maximal inhibitory concentration (IC50) was in the range of 0.1 to 1 µM. On Aurora B, the “JAK3/AurB Fold Selectivity” value is over 50 Fold and the IC50 lay in the range of 1 to 10 µM.

Turning to `Cn1cc(Nc2ncc3cnn(Cc4c(F)c(F)cc(N5CCOCC5=O)c4F)c3n2)cn1` [Example 61, 4-(2,4,5-Trifluoro-3-((6-((1-methyl-1H-pyrazol-4-yl)amino)-1H-pyrazolo[3,4-d]pyrimidin-1-yl)methyl)phenyl)morpholin-3-one], at Aurora A, the “JAK3/AurA Fold Selectivity” value is recorded as over 50 Fold and the IC50 was in the range of 0.1 to 1 µM. For the same molecule, on Aurora B, the “JAK3/AurB Fold Selectivity” value is 10-50 Fold and the IC50 is 0.1 to 1 µM.

In the case of `O=C1COCCN1c1cccc(Cn2ncc3cnc(Nc4cnn(CCO)c4)nc32)c1F` [Example 46, 4-(2-Fluoro-3-((6-((1-(2-hydroxyethyl)-1H-pyrazol-4-yl)amino)-1H-pyrazolo[3,4-d]pyrimidin-1-yl)methyl)phenyl)morpholin-3-one], on Aurora A, the “JAK3/AurA Fold Selectivity” value is 10-50 Fold and the IC50 lay within 0.1 to 1 µM. At Aurora B, the “JAK3/AurB Fold Selectivity” value was 10-50 Fold and the IC50 fell in the range of 0.1 to 1 µM.

`CN(C)CCCn1cc(Nc2ncc3cnn(Cc4cccc(N5CCOCC5=O)c4F)c3n2)cn1` [Example 50, 4-(3-((6-((1-(3-(Dimethylamino)propyl)-1H-pyrazol-4-yl)amino)-1H-pyrazolo[3,4-d]pyrimidin-1-yl)methyl)-2-fluorophenyl)morpholin-3-one]: on Aurora A, the “JAK3/AurA Fold Selectivity” value is over 50 Fold and the IC50 lay in the range of 0.1 to 1 µM. Further, at Aurora B, the “JAK3/AurB Fold Selectivity” value is over 50 Fold and the 50% inhibitory concentration (IC50) was 0.1 to 1 µM.

`Cn1cc(Nc2ncc3cnn(Cc4c(F)ccc(N5CCNCC5=O)c4F)c3n2)cn1` [Example 76, 1-(2,4-Difluoro-3-((6-((1-methyl-1H-pyrazol-4-yl)amino)-1H-pyrazolo[3,4-d]pyrimidin-1-yl)methyl)phenyl)piperazin-2-one]: at Aurora A, the “JAK3/AurA Fold Selectivity” value is 3-10 Fold and the IC50 is under 0.1 µM. Also, at Aurora B, the “JAK3/AurB Fold Selectivity” value is 3-10 Fold and the IC50 lay within 0.1 to 1 µM.

Consider `O=C1CNCCN1c1cccc(Cn2ncc3cnc(Nc4cnn(CCO)c4)nc32)c1F` [Example 55, 1-(2-Fluoro-3-((6-((1-(2-hydroxyethyl)-1H-pyrazol-4-yl)amino)-1H-pyrazolo[3,4-d]pyrimidin-1-yl)methyl)phenyl)piperazin-2-one], for which, at Aurora A, the “JAK3/AurA Fold Selectivity” value was 10-50 Fold and the IC50 is 0.1 to 1 µM. Moreover, at Aurora B, the “JAK3/AurB Fold Selectivity” value was 10-50 Fold and the IC50 is 0.1 to 1 µM.

As to `O=C1COCCN1c1cc(F)c(F)c(Cn2ncc3cnc(Nc4cnn(CCO)c4)nc32)c1F` [Example 62, 4-(2,4,5-Trifluoro-3-((6-((1-(2-hydroxyethyl)-1H-pyrazol-4-yl)amino)-1H-pyrazolo[3,4-d]pyrimidin-1-yl)methyl)phenyl)morpholin-3-one], at Aurora A, the “JAK3/AurA Fold Selectivity” value is 10-50 Fold and the IC50 was 0.1 to 1 µM. Besides, at Aurora B, the “JAK3/AurB Fold Selectivity” value was 10-50 Fold and the half-maximal inhibitory concentration (IC50) is 0.1 to 1 µM.

Consider `Cn1cc(Nc2ncc3cnn(Cc4cc(F)cc(N5CCOCC5=O)c4F)c3n2)cn1` [Example 73, 4-(2,5-Difluoro-3-((6-((1-methyl-1H-pyrazol-4-yl)amino)-1H-pyrazolo[3,4-d]pyrimidin-1-yl)methyl)phenyl)morpholin-3-one], for which, on Aurora A, the “JAK3/AurA Fold Selectivity” value was 10-50 Fold and the IC50 lay in the range of 0.1 to 1 µM. On Aurora B, the “JAK3/AurB Fold Selectivity” value is on record as 10-50 Fold and the IC50 is 0.1 to 1 µM.

With `O=C1COCCN1c1cc(F)cc(Cn2ncc3cnc(Nc4cnn(CCO)c4)nc32)c1F` [Example 74, 4-(2,5-Difluoro-3-((6-((1-(2-hydroxyethyl)-1H-pyrazol-4-yl)amino)-1H-pyrazolo[3,4-d]pyrimidin-1-yl)methyl)phenyl)morpholin-3-one], on Aurora A, the “JAK3/AurA Fold Selectivity” value was 10-50 Fold and the IC50 was under 0.1 µM. Moreover, on Aurora B, the “JAK3/AurB Fold Selectivity” value is 10-50 Fold and the IC50 was under 0.1 µM.

As to `COC1CN(c2cccc(Cn3ncc4cnc(Nc5cnn(C)c5)nc43)c2)C1` [Example 65, 1-(3-(3-Methoxyazetidin-1-yl)benzyl)-N-(1-methyl-1H-pyrazol-4-yl)-1H-pyrazolo[3,4-d]pyrimidin-6-amine], at Aurora A, the “JAK3/AurA Fold Selectivity” value was over 50 Fold and the IC50 fell in the range of 1 to 10 µM. On Aurora B, the “JAK3/AurB Fold Selectivity” value is over 50 Fold and the IC50 was in the range of 1 to 10 µM.

With `CN(C)CCCn1cc(Nc2ncc3cnn(Cc4c(F)c(F)cc(N5CCOCC5)c4F)c3n2)cn1` [Example 42, N-(1-(3-(Dimethylamino)propyl)-1H-pyrazol-4-yl)-1-(2,3,6-trifluoro-5-morpholinobenzyl)-1H-pyrazolo[3,4-d]pyrimidin-6-amine], on Aurora A, the “JAK3/AurA Fold Selectivity” value is on record as over 50 Fold and the IC50 was in the range of 1 to 10 µM. Also, at Aurora B, the “JAK3/AurB Fold Selectivity” value was 10-50 Fold and the IC50 fell in the range of 0.1 to 1 µM.

With `Fc1cc(N2CCOCC2)c(F)c(Cn2ncc3cnc(Nc4cn[nH]c4)nc32)c1F` [Example 81, N-(1H-Pyrazol-4-yl)-1-(2,3,6-trifluoro-5-morpholinobenzyl)-1H-pyrazolo[3,4-d]pyrimidin-6-amine], on Aurora A, the “JAK3/AurA Fold Selectivity” value was over 50 Fold and the IC50 was in the range of 0.1 to 1 µM. For the same molecule, at Aurora B, the “JAK3/AurB Fold Selectivity” value is on record as 10-50 Fold and the IC50 lay within 0.1 to 1 µM.

`Cn1cc(Nc2ncc3cnn(Cc4cccc(N5CCNCC5=O)c4F)c3n2)cn1` [Example 54, 1-(2-Fluoro-3-((6-((1-methyl-1H-pyrazol-4-yl)amino)-1H-pyrazolo[3,4-d]pyrimidin-1-yl)methyl)phenyl)piperazin-2-one]: at Aurora A, the “JAK3/AurA Fold Selectivity” value is recorded as over 50 Fold and the IC50 fell in the range of 0.1 to 1 µM. For the same molecule, on Aurora B, the “JAK3/AurB Fold Selectivity” value was over 50 Fold and the IC50 was 1 to 10 µM.

Consider `CN(C)CCCn1cc(Nc2ncc3cnn(Cc4cccc(N5CCOCC5)c4F)c3n2)cn1` [Example 43, N-(1-(3-(Dimethylamino)propyl)-1H-pyrazol-4-yl)-1-(2-fluoro-3-morpholinobenzyl)-1H-pyrazolo[3,4-d]pyrimidin-6-amine], for which, at Aurora A, the “JAK3/AurA Fold Selectivity” value is over 50 Fold and the concentration for half-maximal inhibition (IC50) is 1 to 10 µM. Moreover, on Aurora B, the “JAK3/AurB Fold Selectivity” value is on record as over 50 Fold and the IC50 lay in the range of 0.1 to 1 µM.

In the case of `Cn1cc(Nc2ncc3cnn(Cc4cc(N5CCNCC5=O)cc(F)c4F)c3n2)cn1` [Example 71, 1-(3,4-Difluoro-5-((6-((1-methyl-1H-pyrazol-4-yl)amino)-1H-pyrazolo[3,4-d]pyrimidin-1-yl)methyl)phenyl)piperazin-2-one], on Aurora A, the “JAK3/AurA Fold Selectivity” value is 10-50 Fold and the IC50 is 0.1 to 1 µM. In addition, at Aurora B, the “JAK3/AurB Fold Selectivity” value is 10-50 Fold and the IC50 was in the range of 0.1 to 1 µM.

Turning to `Cn1cc(Nc2ncc3cnn(Cc4cc(N5CCNCC5)cc(F)c4F)c3n2)cn1` [Example 86, 1-(2,3-Difluoro-5-(piperazin-1-yl)benzyl)-N-(1-methyl-1H-pyrazol-4-yl)-1H-pyrazolo[3,4-d]pyrimidin-6-amine], on Aurora A, the “JAK3/AurA Fold Selectivity” value is given as over 50 Fold and the IC50 was in the range of 1 to 10 µM. Moreover, on Aurora B, the “JAK3/AurB Fold Selectivity” value is reported as 10-50 Fold and the IC50 is 0.1 to 1 µM.

For `OCCn1cc(Nc2ncc3cnn(Cc4cc(N5CCNCC5)cc(F)c4F)c3n2)cn1` [Example 78, 2-(4-((1-(2,3-Difluoro-5-(piperazin-1-yl)benzyl)-1H-pyrazolo[3,4-d]pyrimidin-6-yl)amino)-1H-pyrazol-1-yl)ethanol], at Aurora A, the “JAK3/AurA Fold Selectivity” value is 10-50 Fold and the IC50 lay within 0.1 to 1 µM. Besides, at Aurora B, the “JAK3/AurB Fold Selectivity” value is 3-10 Fold and the IC50 is under 0.1 µM.

In the case of `Cn1cc(Nc2ncc3cnn(Cc4cccc(C(=O)N5CCOCC5)c4F)c3n2)cn1` [Example 87, (2-Fluoro-3-((6-((1-methyl-1H-pyrazol-4-yl)amino)-1H-pyrazolo[3,4-d]pyrimidin-1-yl)methyl)phenyl)(morpholino)methanone], at Aurora A, the “JAK3/AurA Fold Selectivity” value is over 50 Fold and the IC50 lay in the range of 1 to 10 µM. In addition, at Aurora B, the “JAK3/AurB Fold Selectivity” value is over 50 Fold and the IC50 is 1 to 10 µM.

Consider `Cn1cc(Nc2ncc3cnn(Cc4cccc(N5CCOCC5O)c4)c3n2)cn1` (centres unmarked) [Example 88, 4-(3-((6-((1-Methyl-1H-pyrazol-4-yl)amino)-1H-pyrazolo[3,4-d]pyrimidin-1-yl)methyl)phenyl)morpholin-3-ol], for which, at Aurora A, the “JAK3/AurA Fold Selectivity” value is given as 10-50 Fold and the IC50 was in the range of 1 to 10 µM. Also, at Aurora B, the “JAK3/AurB Fold Selectivity” value was over 50 Fold and the IC50 lay in the range of 1 to 10 µM.

As to `Cn1cc(Nc2ncc3cnn(Cc4cccc(N5CCNCC5)c4F)c3n2)cn1` [Example 67, 1-(2-Fluoro-3-(piperazin-1-yl)benzyl)-N-(1-methyl-1H-pyrazol-4-yl)-1H-pyrazolo[3,4-d]pyrimidin-6-amine], on Aurora A, the “JAK3/AurA Fold Selectivity” value was over 50 Fold and the IC50 lay in the range of 0.1 to 1 µM. Also, at Aurora B, the “JAK3/AurB Fold Selectivity” value is on record as 10-50 Fold and the IC50 fell in the range of 0.1 to 1 µM.
